Measurements: ChEMBL document CHEMBL4699524 (Bioorg Med Chem Lett, 2020)

What was measured:
Plasmodium falciparum [1] = test: Antiplasmodial activity against chloroquine-resistant Plasmodium falciparum Dd2 by LDH assay; assay type: functional, organism-based
CHO = test: Cytotoxicity against CHO cells assessed as reduction in cell viability by MTT assay; assay type: cell-based; settings: Cricetulus griseus
in vitro = settings: hamster, CHO cells
Leishmania donovani [2] = test: Antileishmanial activity against Leishmania donovani 9515 promastigotes assessed as inhibition of parasite growth incubated for 72 hrs by resazurin dye based assay; assay type: functional, organism-based; settings: Leishmania donovani, 9515, 72 h
Plasmodium falciparum [3] = test: Antiplasmodial activity against chloroquine-sensitive Plasmodium falciparum NF54 by LDH assay; assay type: functional, organism-based
Leishmania major = test: Antileishmanial activity against Leishmania major IR-173 promastigotes assessed as inhibition of parasite growth incubated for 72 hrs by resazurin dye based assay; assay type: functional, organism-based; settings: IR-173, 72 h
[4] = Selectivity index, ratio of IC50 for CHO cells to IC50 for antileishmanial activity against Leishmania donovani 9515 by resazurin dye based assay; assay type: toxicity; settings: hamster, read-out: Ratio IC50
[5] = Selectivity index, ratio of IC50 for CHO cells to IC50 for antileishmanial activity against Leishmania donovani 1S by resazurin dye based assay; assay type: toxicity; settings: hamster, read-out: Ratio IC50
Leishmania donovani [6] = test: Antileishmanial activity against Leishmania donovani 1S promastigotes assessed as inhibition of parasite growth incubated for 72 hrs by resazurin dye based assay; assay type: functional, organism-based

Row | Structure (SMILES) | IC50 (Plasmodium falciparum [1]) [µM] | IC50 (CHO) [µM] | selectivity ratio (in vitro) | IC50 (Leishmania donovani [2]) [µM] | IC50 (Plasmodium falciparum [3]) [µM] | IC50 (Leishmania major) [µM] | selectivity ratio [4] | selectivity ratio [5] | IC50 (Leishmania donovani [6]) [µM]
1 | COc1ccc2nc3cc(Cl)ccc3c(N3CCN(CCO[C@H]4O[C@@H]5O[C@@]6(C)CC[C@H]7[C@H](C)CC[C@@H]([C@H]4C)[C@@]57OO6)C(C)C3)c2c1 (stereo not given in full) | 0.0413 | 6 | 9 | 1.59 | 0.017 | 0.69 | 5 | 4 | 2.38
2 | C[C@H]1[C@@H](O)O[C@@H]2O[C@@]3(C)CC[C@H]4[C@H](C)CC[C@@H]1[C@@]24OO3 [ARTENIMOL] | 0.0012 | > 100 | 2 | 31.2 | 0.0022 | 42.6 | 4 | 3 | 27
3 | COc1ccc2nc3cc(Cl)ccc3c(N3CCNC(C)C3)c2c1 (stereo not given) | 0.384 | 5.6 | 1.6 | 3.54 | 0.158 | 3.47 | 1.4 | 1.6 | 4.16
4 | COc1ccc2nc3cc(Cl)ccc3c(N3CCN(CCO[C@H]4O[C@@H]5O[C@@]6(C)CC[C@H]7[C@H](C)CC[C@@H]([C@H]4C)[C@@]57OO6)CC3)c2c1 | 0.43 | > 100 | 33 | 32.1 | 0.267 | 4.8 | 3 | 5 | 54.1
5 | COc1ccc2nc3cc(Cl)ccc3c(NCCCN(C)CCO[C@H]3O[C@@H]4O[C@@]5(C)CC[C@H]6[C@H](C)CC[C@@H]([C@H]3C)[C@@]46OO5)c2c1 | 0.0385 | 1.2 | 5 | 0.17 | 0.0122 | 0.23 | 3 | 7 | 0.37
6 | C[C@@H]1CC[C@H]2C(C)(COC(=O)CCc3ccccc3)O[C@@H]3O[C@@]4(C)CC[C@@H]1[C@]32OO4 (stereo not given in full) | 0.0115 | > 100 | 16 | 24.6 | 0.0074 | 6.36 | 4 | > 4 | 24.4
7 | CCCCCC(=O)OCC1(C)O[C@@H]2O[C@@]3(C)CC[C@H]4[C@H](C)CC[C@@H]1[C@@]24OO3 (stereo not given in full) | 0.0432 | > 100 | 7 | 23 | 0.0601 | 13.9 | 4 | > 4 | 25.5
8 | CO[C@H]1O[C@@H]2O[C@@]3(C)CC[C@H]4[C@H](C)CC[C@@H]([C@H]1C)[C@@]24OO3 |  | > 100 | 4 | 90.9 |  | 22.5 | 2 | 1 | 42.3
9 | C[C@@H]1CC[C@H]2C(C)(COC(=O)c3ccc([N+](=O)[O-])cc3)O[C@@H]3O[C@@]4(C)CC[C@@H]1[C@]32OO4 (stereo not given in full) | 0.0026 | > 100 | 18 | 4.26 | 0.0067 | 5.71 | 19 | > 24 | 5.15
10 | COc1ccc2nc3cc(Cl)ccc3c(NCCN)c2c1 | 0.0807 | 1 | 0.5 | 2.81 | 0.0139 | 2.07 | 0.4 | 0.4 | 2.26
11 | C[C@@H]1CC[C@H]2C(C)(COC(=O)c3ccco3)O[C@@H]3O[C@@]4(C)CC[C@@H]1[C@]32OO4 (stereo not given in full) | 0.0031 | > 100 | 1 | > 100 | 0.0092 | > 100 | 1 |  | > 100
12 | C[C@@H]1CC[C@H]2C(C)(COC(=O)[C@H]3CCCN3C(=O)C(F)(F)F)O[C@@H]3O[C@@]4(C)CC[C@@H]1[C@]32OO4 (stereo not given in full) | 0.0078 | > 100 | 4 | 37.6 | 0.0079 | 15.6 | 11 | 3 | 9.29
13 | CC(=O)OCC1(C)O[C@@H]2O[C@@]3(C)CC[C@H]4[C@H](C)CC[C@@H]1[C@@]24OO3 (stereo not given in full) | 0.0126 | > 100 | 2 | > 100 | 0.0112 | 42.1 | 1 |  | 85.2
14 | CC[C@H]1CN2CCc3cc(OC)c(OC)cc3[C@@H]2C[C@@H]1C[C@H]1NCCc2cc(OC)c(OC)cc21 [EMETINE] |  | 0.29 |  |  |  |  |  |  | 
15 | C[C@@H]1CC[C@H]2C(C)(COC(=O)c3cc4ccccc4o3)O[C@@H]3O[C@@]4(C)CC[C@@H]1[C@]32OO4 (stereo not given in full) | 0.0071 | > 100 | 9 | 10.3 | 0.0146 | 11.2 | 7 | > 10 | 13.5
16 | COc1ccc2nc3cc(Cl)ccc3c(N3CCNCC3)c2c1 | 1.67 | 3.4 | 1 | 3.21 | 1.49 | 3.52 | 1 | 1.1 | 3.26
17 | CNCCCNc1c2ccc(Cl)cc2nc2ccc(OC)cc12 | 0.117 | 0.5 | 0.4 | 3.33 | 0.0091 | 1.43 | 0.1 | 0.2 | 3.7
18 | COc1ccc2nc3cc(Cl)ccc3c(NCCNCCO[C@H]3O[C@@H]4O[C@@]5(C)CC[C@H]6[C@H](C)CC[C@@H]([C@H]3C)[C@@]46OO5)c2c1 | 0.0353 | 1.6 | 6 | 0.32 | 0.0026 | 0.29 | 4 | 5 | 0.38
19 | C[C@H]1[C@H](OC(=O)CCC(=O)O)O[C@@H]2O[C@@]3(C)CC[C@H]4[C@H](C)CC[C@@H]1[C@@]24OO3 [SODIUM ARESUNATE] |  | > 100 | 1.6 | 80.2 | 0.008 | 61.2 | 1.6 | 1 | 63.1
20 | C[C@@H]1CC[C@H]2C(C)(CO)O[C@@H]3O[C@@]4(C)CC[C@@H]1[C@]32OO4 (stereo not given in full) | 0.0074 | > 100 | 1 | > 100 | 0.0041 | > 100 | 1 |  | > 100
21 | CCCC(=O)OCC1(C)O[C@@H]2O[C@@]3(C)CC[C@H]4[C@H](C)CC[C@@H]1[C@@]24OO3 (stereo not given in full) | 0.0069 | > 100 | 8 | 45 | 0.0169 | 11.9 | 8 | > 2 | 12.4
